The source made the active and inactive calls.
Key:
[1] = molecular target: T1, Short transient receptor potential channel 4 (Mus musculus, UniProt Q9QUQ5); experiment: mouse TRPC4 channel inhibitors, dose response, cell-based, HEK293 TRPC4/mu-opioid, Fluo-4 calcium (AID 434942); assay type: functional;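 note: potency of inhibitors blocking the TRPC4 calcium response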
T1 sequence (Q9QUQ5 whole entry): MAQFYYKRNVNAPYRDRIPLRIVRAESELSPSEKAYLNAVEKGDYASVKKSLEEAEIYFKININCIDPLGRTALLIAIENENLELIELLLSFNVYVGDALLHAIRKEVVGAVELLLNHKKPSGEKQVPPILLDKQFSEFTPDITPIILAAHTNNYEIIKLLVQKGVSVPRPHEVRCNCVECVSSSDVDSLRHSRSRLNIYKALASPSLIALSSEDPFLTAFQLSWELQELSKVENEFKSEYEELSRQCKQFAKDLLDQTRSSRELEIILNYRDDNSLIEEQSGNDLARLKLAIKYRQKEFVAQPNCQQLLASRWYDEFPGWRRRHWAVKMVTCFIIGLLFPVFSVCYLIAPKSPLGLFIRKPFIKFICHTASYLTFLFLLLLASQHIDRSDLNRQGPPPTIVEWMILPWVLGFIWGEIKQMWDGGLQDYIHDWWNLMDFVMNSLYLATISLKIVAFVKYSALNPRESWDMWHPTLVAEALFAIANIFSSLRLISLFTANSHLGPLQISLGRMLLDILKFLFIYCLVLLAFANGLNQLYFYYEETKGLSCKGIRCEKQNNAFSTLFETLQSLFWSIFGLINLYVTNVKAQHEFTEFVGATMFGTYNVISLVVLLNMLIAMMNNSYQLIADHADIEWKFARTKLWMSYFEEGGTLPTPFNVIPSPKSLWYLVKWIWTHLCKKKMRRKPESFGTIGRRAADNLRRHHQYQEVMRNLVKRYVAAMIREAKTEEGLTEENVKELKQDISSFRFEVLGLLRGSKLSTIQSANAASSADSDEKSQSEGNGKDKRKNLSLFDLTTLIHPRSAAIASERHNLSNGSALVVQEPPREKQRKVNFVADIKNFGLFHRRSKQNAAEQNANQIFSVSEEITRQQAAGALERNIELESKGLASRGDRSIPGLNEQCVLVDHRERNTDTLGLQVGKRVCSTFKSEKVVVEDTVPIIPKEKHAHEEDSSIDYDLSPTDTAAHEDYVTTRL

HEK293 [2] = experiment: NOD1 signaling inhibitors, primary screen, cell-based, luminescence, uHTS (AID 1578); assay type: functional; details: Homo sapiens
HEK293 [3] = experiment: cells; assay type: functional, cell-based; details: Homo sapiens
HEK293 [4] = experiment: cells; assay type: functional, cell-based; details: Homo sapiens; remark: listed apart in the source
[5] = molecular target: Nucleotide-binding oligomerization domain-containing protein 2 (Homo sapiens, UniProt Q9HC29); experiment: NOD2 signaling inhibitors, cell-based, luminescence, uHTS, HEK293 (AID 1566); assay type: functional
HEK293 [6] = experiment: NOD2 signaling inhibitors in MDP-stimulated cells, cell-based, uHTS, luminescence (AID 2001); assay type: functional; details: Homo sapiens
HEK293 [7] = experiment: cells; assay type: functional, cell-based; details: Homo sapiens; remark: listed apart in the source
Cytochrome P450 3A4 = Cytochrome P450 3A4 (Homo sapiens, UniProt P08684); details: Potency;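 note: confirmatory qHTS run detecting inhibitors and substrates of CYP3A4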
NADPH oxidase 1 = molecular target: T2, NADPH oxidase 1 (Homo sapiens, UniProt Q9Y5S8); assay type: functional, cell-based;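 note: Cell-based assay with luminescence read-out, IC50 derived from inhibitor dose-response curves; intracellular ROS from endogenous NOX1 in intact HT29 colon cancer cells; potency of inhibitors that lower the ROS luminescence signal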
T2 sequence (Q9Y5S8 whole entry): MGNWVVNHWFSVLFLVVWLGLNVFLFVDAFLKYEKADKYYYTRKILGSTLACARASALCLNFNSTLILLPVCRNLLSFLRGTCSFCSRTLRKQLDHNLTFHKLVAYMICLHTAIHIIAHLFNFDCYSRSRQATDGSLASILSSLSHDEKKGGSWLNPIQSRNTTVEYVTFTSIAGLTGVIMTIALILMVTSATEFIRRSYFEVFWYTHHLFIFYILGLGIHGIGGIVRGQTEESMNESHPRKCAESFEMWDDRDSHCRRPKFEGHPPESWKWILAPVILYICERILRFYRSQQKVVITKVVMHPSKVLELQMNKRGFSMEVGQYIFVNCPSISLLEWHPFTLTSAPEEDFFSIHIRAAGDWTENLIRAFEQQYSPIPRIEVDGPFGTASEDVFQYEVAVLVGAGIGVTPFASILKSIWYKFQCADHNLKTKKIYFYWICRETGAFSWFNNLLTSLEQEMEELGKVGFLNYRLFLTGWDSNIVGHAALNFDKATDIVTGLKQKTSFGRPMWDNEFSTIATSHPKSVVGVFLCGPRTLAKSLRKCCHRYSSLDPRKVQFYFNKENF

Cytochrome P450 2C9 = Cytochrome P450 2C9 (Homo sapiens, UniProt P11712)
Cytochrome P450 2C19 = Cytochrome P450 2C19 (Homo sapiens, UniProt P33261); experiment: Cytochrome panel assay with activity outcomes. Panel member name: p450-cyp2c19 Compounds with AC50 equal or less than 10 uM are considered active; assay type: functional; details: read-out: AC50
[8] = molecular target: T3, High affinity choline transporter 1 (Homo sapiens, UniProt Q9GZV3); experiment: CHT inhibitors, dose response, cell-based, 5-point CRC, membrane potential dye (AID 504840); assay type: functional
T3 sequence (Q9GZV3 whole entry): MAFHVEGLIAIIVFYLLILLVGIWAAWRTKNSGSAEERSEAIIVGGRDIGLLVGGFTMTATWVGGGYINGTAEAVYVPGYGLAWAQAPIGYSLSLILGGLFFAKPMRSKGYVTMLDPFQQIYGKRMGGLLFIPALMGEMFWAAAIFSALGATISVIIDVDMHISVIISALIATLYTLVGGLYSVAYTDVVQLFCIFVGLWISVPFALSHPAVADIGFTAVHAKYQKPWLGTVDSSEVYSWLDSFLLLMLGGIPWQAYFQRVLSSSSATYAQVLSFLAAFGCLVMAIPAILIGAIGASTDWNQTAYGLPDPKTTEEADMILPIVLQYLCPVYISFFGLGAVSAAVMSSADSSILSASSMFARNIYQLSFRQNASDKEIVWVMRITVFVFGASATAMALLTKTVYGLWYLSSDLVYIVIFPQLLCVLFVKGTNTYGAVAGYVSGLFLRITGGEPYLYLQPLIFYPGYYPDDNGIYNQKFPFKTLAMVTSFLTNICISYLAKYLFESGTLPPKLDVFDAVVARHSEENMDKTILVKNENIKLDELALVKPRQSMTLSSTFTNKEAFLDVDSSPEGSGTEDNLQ

Vero = experiment: cells; assay type: functional; details: Chlorocebus sabaeus
[9] = molecular target: T1, Short transient receptor potential channel 4; experiment: mouse TRPC4 channel activators, dose response, cell-based, HEK293 TRPC4/mu-opioid, Fluo-4 calcium (AID 434937); assay type: functional
[10] = Luminescence Cell-Based Dose Retest to Confirm Inhibitors of Cancer Stem Cells. [Related pubchem assays (depositor defined):AID2717, AID2721]; assay type: functional; details: Homo sapiens
[11] = molecular target: T4, Rac GTPase-activating protein 1 (Homo sapiens, UniProt Q9H0H5); experiment: MgcRacGAP GTPase-activating activity inhibitors, confirmation, biochemical, ADP Hunter fluorescence, primary and confirmatory (AID 624330); assay type: functional
T4 sequence (Q9H0H5 whole entry): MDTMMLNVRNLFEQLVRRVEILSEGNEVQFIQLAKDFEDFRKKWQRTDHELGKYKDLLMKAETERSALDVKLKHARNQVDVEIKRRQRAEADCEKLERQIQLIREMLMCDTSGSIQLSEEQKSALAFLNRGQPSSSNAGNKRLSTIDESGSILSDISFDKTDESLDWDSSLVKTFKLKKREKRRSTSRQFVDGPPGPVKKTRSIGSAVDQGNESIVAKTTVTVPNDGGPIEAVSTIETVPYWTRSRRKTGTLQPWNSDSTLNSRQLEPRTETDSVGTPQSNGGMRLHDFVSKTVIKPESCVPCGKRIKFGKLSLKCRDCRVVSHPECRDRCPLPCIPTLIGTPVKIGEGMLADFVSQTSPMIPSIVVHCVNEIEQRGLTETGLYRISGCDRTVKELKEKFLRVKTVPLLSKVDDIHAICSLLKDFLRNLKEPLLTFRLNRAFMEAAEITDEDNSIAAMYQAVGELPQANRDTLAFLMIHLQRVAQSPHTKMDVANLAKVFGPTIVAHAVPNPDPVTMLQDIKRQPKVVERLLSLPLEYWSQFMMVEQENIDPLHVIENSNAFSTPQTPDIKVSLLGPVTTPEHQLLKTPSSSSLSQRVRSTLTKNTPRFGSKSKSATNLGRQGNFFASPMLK

Cytochrome P450 2C9, sequence (P11712 whole entry): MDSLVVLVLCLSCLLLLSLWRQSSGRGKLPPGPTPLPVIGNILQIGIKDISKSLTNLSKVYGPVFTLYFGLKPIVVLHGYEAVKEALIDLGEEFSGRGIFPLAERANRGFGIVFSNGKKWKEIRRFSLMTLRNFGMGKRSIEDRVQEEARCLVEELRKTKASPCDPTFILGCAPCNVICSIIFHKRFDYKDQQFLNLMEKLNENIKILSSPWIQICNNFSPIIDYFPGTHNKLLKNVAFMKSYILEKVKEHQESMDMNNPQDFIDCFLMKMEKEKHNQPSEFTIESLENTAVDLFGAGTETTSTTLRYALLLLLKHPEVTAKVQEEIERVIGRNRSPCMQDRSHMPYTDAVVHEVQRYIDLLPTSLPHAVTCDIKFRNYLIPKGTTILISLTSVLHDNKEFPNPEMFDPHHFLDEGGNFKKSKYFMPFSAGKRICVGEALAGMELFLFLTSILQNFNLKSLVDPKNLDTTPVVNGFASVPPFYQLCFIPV
Cytochrome P450 3A4, sequence (P08684 whole entry): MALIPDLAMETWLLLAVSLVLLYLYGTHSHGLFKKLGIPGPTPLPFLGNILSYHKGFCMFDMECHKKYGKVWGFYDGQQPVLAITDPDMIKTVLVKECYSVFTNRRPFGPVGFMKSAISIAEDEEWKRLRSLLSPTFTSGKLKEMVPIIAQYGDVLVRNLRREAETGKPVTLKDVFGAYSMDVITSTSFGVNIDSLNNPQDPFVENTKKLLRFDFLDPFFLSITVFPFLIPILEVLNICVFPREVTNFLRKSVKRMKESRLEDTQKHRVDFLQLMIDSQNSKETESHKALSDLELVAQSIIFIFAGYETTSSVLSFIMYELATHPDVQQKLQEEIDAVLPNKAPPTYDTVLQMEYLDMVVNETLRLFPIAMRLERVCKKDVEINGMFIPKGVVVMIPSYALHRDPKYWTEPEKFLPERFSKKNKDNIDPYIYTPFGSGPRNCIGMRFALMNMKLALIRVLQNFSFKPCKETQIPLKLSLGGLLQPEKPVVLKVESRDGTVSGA
Nucleotide-binding oligomerization domain-containing protein 2, sequence (Q9HC29 whole entry, the tested form may be a part): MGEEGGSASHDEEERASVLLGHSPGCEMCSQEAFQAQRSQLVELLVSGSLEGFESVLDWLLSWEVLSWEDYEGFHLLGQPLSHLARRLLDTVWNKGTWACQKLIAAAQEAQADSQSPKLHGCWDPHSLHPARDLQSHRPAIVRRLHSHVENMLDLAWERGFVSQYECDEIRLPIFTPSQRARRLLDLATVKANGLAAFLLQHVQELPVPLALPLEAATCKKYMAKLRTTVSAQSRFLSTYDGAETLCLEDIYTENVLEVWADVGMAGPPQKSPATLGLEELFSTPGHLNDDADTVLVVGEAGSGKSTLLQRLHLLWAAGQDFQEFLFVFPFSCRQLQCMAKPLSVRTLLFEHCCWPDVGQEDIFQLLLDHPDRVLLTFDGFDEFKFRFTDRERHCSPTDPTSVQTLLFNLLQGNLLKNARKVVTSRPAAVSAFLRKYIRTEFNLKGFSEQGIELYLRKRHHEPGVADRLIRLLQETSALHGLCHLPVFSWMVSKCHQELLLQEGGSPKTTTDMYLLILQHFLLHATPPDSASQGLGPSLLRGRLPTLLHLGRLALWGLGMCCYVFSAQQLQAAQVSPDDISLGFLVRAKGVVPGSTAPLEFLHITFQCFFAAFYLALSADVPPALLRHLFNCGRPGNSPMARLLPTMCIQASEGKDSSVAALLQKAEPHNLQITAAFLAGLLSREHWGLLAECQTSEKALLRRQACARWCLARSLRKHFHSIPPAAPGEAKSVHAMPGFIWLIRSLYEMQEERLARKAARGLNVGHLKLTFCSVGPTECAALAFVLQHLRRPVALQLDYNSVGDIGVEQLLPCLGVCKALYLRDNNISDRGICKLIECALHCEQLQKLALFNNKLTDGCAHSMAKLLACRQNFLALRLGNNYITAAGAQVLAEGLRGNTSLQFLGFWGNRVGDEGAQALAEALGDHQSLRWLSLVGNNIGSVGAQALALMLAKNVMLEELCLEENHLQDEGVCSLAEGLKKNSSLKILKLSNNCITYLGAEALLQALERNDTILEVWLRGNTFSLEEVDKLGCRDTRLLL
Cytochrome P450 2C19, sequence (P33261 whole entry): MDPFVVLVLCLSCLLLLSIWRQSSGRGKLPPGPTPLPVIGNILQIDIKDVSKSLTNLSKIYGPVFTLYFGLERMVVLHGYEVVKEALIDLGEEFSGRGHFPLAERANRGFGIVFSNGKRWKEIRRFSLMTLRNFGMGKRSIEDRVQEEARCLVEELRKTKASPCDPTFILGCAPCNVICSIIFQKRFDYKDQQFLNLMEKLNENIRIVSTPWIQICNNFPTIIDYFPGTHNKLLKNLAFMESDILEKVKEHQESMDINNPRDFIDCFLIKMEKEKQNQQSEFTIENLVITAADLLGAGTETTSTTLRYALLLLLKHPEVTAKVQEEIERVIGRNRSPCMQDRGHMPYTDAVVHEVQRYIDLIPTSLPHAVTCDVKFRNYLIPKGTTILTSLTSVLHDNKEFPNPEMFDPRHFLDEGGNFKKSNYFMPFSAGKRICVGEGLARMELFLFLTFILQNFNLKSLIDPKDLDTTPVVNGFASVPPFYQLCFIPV

## COc1ccc(F)cc1C(=O)C1CCCN(Cc2ccc3c(c2)OCCO3)C1 (configuration not stated)
[1]
  EC50: 1.33 µM (active)

## CCc1ccc(OCC(=O)Nc2ccc(-c3cc4ccccc4oc3=O)c(OC)c2)cc1
HEK293 [2]
  EC50: 2.18 µM (active)
HEK293 [3]
  IC50: 2.79 µM (active)
HEK293 [4]
  IC50: 11.3 µM (active)
[5]
  EC50: 5.25 µM (active)
HEK293 [6]
  IC50: 2.94 µM (active)
HEK293 [7]
  IC50: > 20 µM (inactive)

## CNC(=O)[C@@]1(C)C=C[C@@H](Cc2ccccc2)N1C(=O)OC
Cytochrome P450 3A4
  AC50: 3.16 µM (inconclusive)

## CSc1ccc(NC(=O)Nc2ccc(N(C)C)cc2)cc1
NADPH oxidase 1
  IC50: 0.0777 µM (active)

## CCN(CC)c1ccc(NC(=O)Nc2ccc(OCc3ccccc3)cc2)cc1
NADPH oxidase 1
  IC50: 0.235 µM (active)

## CCC(=O)CC(NC(=O)OC)c1ccccc1 (configuration not stated)
Cytochrome P450 3A4
  AC50: 6.31 µM (inconclusive)

## Cc1ccc(OP(=O)(Oc2ccc(C)cc2)N2C=Cc3ccccc3[C@H]2C#N)cc1
Cytochrome P450 2C9
  AC50: inconclusive

## Cc1cc(C)cc(NC(S)=NC2CC3CCC(C2)N3Cc2ccco2)c1 (configuration not stated)
Cytochrome P450 2C19
  AC50: 35.5 µM (inconclusive)
Cytochrome P450 2C9
  AC50: inconclusive

## N#Cc1cccc(-c2nc3cnc(N4CCOCC4)nc3n(Cc3ccc(F)cc3)c2=O)c1
Cytochrome P450 2C9
  AC50: inconclusive

## Cc1cc(OCc2cc(C(=O)NCCN3CCCCC3CO)no2)cc(C)c1Cl (configuration not stated)
[1]
  EC50: 2.99 µM (active)
[8]
  IC50: 18.2 µM (active)
Vero
  CC50: > 25 µM (active)

## Fc1ccc(NC(=S)NNC(=S)Nc2ccccc2)cc1
NADPH oxidase 1
  IC50: 0.218 µM (active)

## O=C(Oc1ccc([N+](=O)[O-])cc1)c1sc2ccccc2c1Cl
NADPH oxidase 1
  IC50: > 17 µM (not active)

## CN(C)C(CNC(=O)Cc1cccc(C(F)(F)F)c1)c1ccccc1 (configuration not stated)
[1]
  EC50: 0.0093 µM (active)
[9]
  EC50: 0.0947 µM (active)

## COc1cc(/C=C/C(=O)c2ccc3c(c2)OCO3)cc(Cl)c1O
[10]
  AC50: 6.39 µM (active)
[9]
  EC50: 5.96 µM (active)
[11]
  IC50: 93.6 µM (active)

## CCOC(=O)C1(O)Oc2cc(OC)cc(OC)c2C(=O)C1c1ccccc1 (configuration not stated) [2-ETHOXYCARBONYL-2-HYDROXY-5,7-DIMETHOXYISOFLAVANONE]
Cytochrome P450 3A4
  AC50: 20 µM (inconclusive)

## Nc1ccc2ccccc2c1 [NAPHTHYLAMINE]
Cytochrome P450 3A4
  AC50: 12.6 µM (inconclusive)

— ChEMBL document CHEMBL1201862, “PubChem BioAssay data set” (2004)
